Here are results for eight compounds from PubChem BioAssay (NCI).

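The compound was tested at five concentrations on cells cultured in 96-well plates, with a 48-hour exposure period. GI50 = concentration required for 50% inhibition of growth. TGI: total growth inhibition.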

Test systems include SNB-19 CNS; HOP-62 NSCLC; HL-60(TB) leukemia; 786-0 renal; HOP-92 NSCLC; COLO 205 colon; OVCAR-5 ovarian; TK-10 renal; IGROV1 ovarian; SK-OV-3 ovarian.
Assay in all cases: NCI anticancer screen, dose series, 48 h

Regarding `O=C(/C=C/C12c3ccccc3C(c3ccccc31)C1C(=O)N(c3ccccc3)C(=O)C12)c1ccccc1` (stereo not given), the GI50 is 3.08 µM in the assay on SNB-19 CNS; 3.23 µM in the assay with HOP-62 NSCLC; 1.02 µM in the assay with HL-60(TB) leukemia; 2.89 µM with 786-0 renal; 1.26 µM in the assay with HOP-92 NSCLC; 2.11 µM in the assay on COLO 205 colon. The GI50 in the assay on OVCAR-5 ovarian is 1.91 µM; in the assay with TK-10 renal, 6.22 µM; in the assay with IGROV1 ovarian, 2.06 µM; in the assay on SK-OV-3 ovarian, 28.3 µM. Moreover, the TGI with SNB-19 CNS is over 100 µM; with HOP-62 NSCLC it was 14.6 µM; in the assay on HL-60(TB) leukemia it was 8.66 µM; with 786-0 renal it was over 100 µM; in the assay with HOP-92 NSCLC, 3.75 µM; in the assay with COLO 205 colon, 4.85 µM. The TGI with OVCAR-5 ovarian is 5.02 µM; in the assay with TK-10 renal it was over 100 µM; in the assay on IGROV1 ovarian it was 6.05 µM; in the assay with SK-OV-3 ovarian, over 100 µM.
In the case of `COc1ccc2c(c1)/C(=C\c1cccnc1)C(=O)N2`, the GI50 in the assay with SNB-19 CNS was 16.2 µM; in the assay with HOP-62 NSCLC, 23 µM; in the assay on HL-60(TB) leukemia it was 24.7 µM; with 786-0 renal, 18.3 µM; in the assay with HOP-92 NSCLC, 26.6 µM; in the assay on COLO 205 colon it was 26.2 µM. Besides, the GI50 with OVCAR-5 ovarian is 24.3 µM; in the assay with TK-10 renal, 18.5 µM; in the assay on IGROV1 ovarian, 32.2 µM; in the assay on SK-OV-3 ovarian, 20.3 µM. Moreover, the TGI in the assay on SNB-19 CNS is 51.6 µM; in the assay with HOP-62 NSCLC, 60.3 µM; in the assay with HL-60(TB) leukemia, over 100 µM; in the assay with 786-0 renal it was 45.7 µM; in the assay on HOP-92 NSCLC, 69.7 µM; in the assay on COLO 205 colon it was over 100 µM. Also, the TGI in the assay on OVCAR-5 ovarian is 78.5 µM; in the assay with TK-10 renal, 44.6 µM; in the assay with IGROV1 ovarian it was over 100 µM; in the assay with SK-OV-3 ovarian, 46.5 µM.
With `COc1ccc2c(c1)C(=O)c1c-2n(CCCN=[N+]=[N-])c(=O)c2cc(N(C)C)ccc12`, the GI50 in the assay with SNB-19 CNS is over 100 µM; in the assay on HOP-62 NSCLC it was 10.3 µM; in the assay with HL-60(TB) leukemia it was over 100 µM; with 786-0 renal it was 29.5 µM; in the assay on HOP-92 NSCLC, 2.87 µM; in the assay on COLO 205 colon it was over 100 µM. The GI50 in the assay on OVCAR-5 ovarian, in the assay with TK-10 renal, with IGROV1 ovarian and in the assay with SK-OV-3 ovarian was over 100 µM throughout. Further, the TGI is over 100 µM in the assay with SNB-19 CNS; over 100 µM in the assay with HOP-62 NSCLC; over 100 µM in the assay on HL-60(TB) leukemia; over 100 µM in the assay on 786-0 renal; 24.6 µM in the assay with HOP-92 NSCLC; over 100 µM in the assay on COLO 205 colon. The TGI in the assay with OVCAR-5 ovarian, in the assay with TK-10 renal, in the assay with IGROV1 ovarian and with SK-OV-3 ovarian was over 100 µM throughout.
With `O=Cc1ccccc1OCCOc1cc(OCCOc2ccccc2C=O)c(OCCOc2ccccc2C=O)cc1OCCOc1ccccc1C=O`, the TGI in the assay with SNB-19 CNS was over 82.9 µM; in the assay with HOP-62 NSCLC it was over 100 µM; in the assay with HL-60(TB) leukemia it was over 100 µM; in the assay on 786-0 renal, over 71.3 µM; in the assay with HOP-92 NSCLC it was over 79.8 µM; with COLO 205 colon, over 100 µM. Further, the TGI with OVCAR-5 ovarian was over 100 µM; with TK-10 renal, 96.8 µM; in the assay with IGROV1 ovarian, over 100 µM; in the assay on SK-OV-3 ovarian, over 100 µM.
On to `CC(=O)Nc1ccc(C(=O)NN2C(=O)C(Cl)C2c2ccc([N+](=O)[O-])cc2)cc1` (stereo not given), for which the TGI in the assay on SNB-19 CNS, in the assay on HOP-62 NSCLC, in the assay with HL-60(TB) leukemia, with 786-0 renal, with HOP-92 NSCLC and with COLO 205 colon was over 100 µM in each case. Moreover, the TGI in the assay with OVCAR-5 ovarian, in the assay with TK-10 renal, with IGROV1 ovarian and in the assay on SK-OV-3 ovarian was over 100 µM each time.
With `O=C1C=C(NCCNC(=S)Nc2ccccc2)c2nccc3c2c1nc1ccccc13`, the GI50 in the assay on SNB-19 CNS is over 100 µM; in the assay on HOP-62 NSCLC, 81.7 µM; with HL-60(TB) leukemia, 17.4 µM; with 786-0 renal, 94.5 µM; in the assay with HOP-92 NSCLC, over 100 µM; in the assay on COLO 205 colon it was 9.18 µM. Besides, the GI50 was over 100 µM in the assay on OVCAR-5 ovarian, 51.9 µM in the assay on TK-10 renal, 56.8 µM in the assay on IGROV1 ovarian and over 100 µM with SK-OV-3 ovarian. In addition, the TGI with SNB-19 CNS, in the assay with HOP-62 NSCLC, in the assay with HL-60(TB) leukemia, with 786-0 renal, in the assay on HOP-92 NSCLC and with COLO 205 colon was over 100 µM in each case. In addition, the TGI in the assay with OVCAR-5 ovarian, in the assay with TK-10 renal, in the assay on IGROV1 ovarian and in the assay with SK-OV-3 ovarian was over 100 µM each time.
With `CCCCCCCNc1nc(C(=O)OCC)ncc1-c1ccc(C(F)(F)F)cc1`, the GI50 is 33.4 µM in the assay with SNB-19 CNS; 55.7 µM in the assay on HOP-62 NSCLC; 30.4 µM with HL-60(TB) leukemia; 39.3 µM with 786-0 renal; 24.8 µM in the assay with HOP-92 NSCLC; 26.8 µM in the assay with COLO 205 colon. The GI50 was over 100 µM in the assay on OVCAR-5 ovarian, 51.2 µM in the assay on TK-10 renal, 24.7 µM in the assay with IGROV1 ovarian and 39.1 µM with SK-OV-3 ovarian. Also, the TGI in the assay on SNB-19 CNS was over 100 µM; in the assay with HOP-62 NSCLC it was over 100 µM; with HL-60(TB) leukemia, 88.8 µM; in the assay with 786-0 renal, over 100 µM; in the assay on HOP-92 NSCLC, over 100 µM; with COLO 205 colon, 88.1 µM. In addition, the TGI in the assay with OVCAR-5 ovarian is over 100 µM; in the assay with TK-10 renal it was over 100 µM; with IGROV1 ovarian it was 70.9 µM; with SK-OV-3 ovarian, over 100 µM.
As to `CCc1cccc(C(C)C)c1NC(=O)C(=O)CC(=O)c1c(C)n([O-])c2ccccc2[n+]1=O`, the TGI in the assay with SNB-19 CNS, in the assay on HOP-62 NSCLC, in the assay on HL-60(TB) leukemia, with 786-0 renal, in the assay on HOP-92 NSCLC and in the assay on COLO 205 colon was over 100 µM each time. The TGI with OVCAR-5 ovarian, in the assay with TK-10 renal, in the assay with IGROV1 ovarian and in the assay on SK-OV-3 ovarian was over 100 µM in each case.
